# Target: T1, Receptor-interacting serine/threonine-protein kinase 1 (Homo sapiens, UniProt Q13546)
# T1 sequence (Q13546 whole entry): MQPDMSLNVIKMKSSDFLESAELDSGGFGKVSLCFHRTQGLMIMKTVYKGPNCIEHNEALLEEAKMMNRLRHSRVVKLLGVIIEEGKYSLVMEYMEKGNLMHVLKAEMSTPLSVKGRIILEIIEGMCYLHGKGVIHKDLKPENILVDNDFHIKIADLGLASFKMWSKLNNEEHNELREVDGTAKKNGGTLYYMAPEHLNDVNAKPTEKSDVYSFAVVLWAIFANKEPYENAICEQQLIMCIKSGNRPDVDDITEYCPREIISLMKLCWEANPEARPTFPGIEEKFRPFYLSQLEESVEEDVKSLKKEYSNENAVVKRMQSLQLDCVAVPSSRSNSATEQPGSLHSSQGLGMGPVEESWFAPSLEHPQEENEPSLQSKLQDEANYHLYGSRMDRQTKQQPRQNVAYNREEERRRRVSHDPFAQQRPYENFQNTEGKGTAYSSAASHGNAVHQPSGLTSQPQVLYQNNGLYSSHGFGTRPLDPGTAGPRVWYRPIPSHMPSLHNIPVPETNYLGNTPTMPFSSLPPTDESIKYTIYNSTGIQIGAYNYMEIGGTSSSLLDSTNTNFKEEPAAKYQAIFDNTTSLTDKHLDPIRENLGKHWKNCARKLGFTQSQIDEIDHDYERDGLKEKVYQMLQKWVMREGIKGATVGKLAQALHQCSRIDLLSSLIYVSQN
# Test: For negative control the enzyme addition was replaced by assay buffer only.
row,IC50,Structure (SMILES)
1,0.1 to 1000 nM,CN1C(=O)[C@@H](NC(=O)c2cc(C3(c4ccccc4)CC3)on2)COc2cnccc21
2,0.1 to 1000 nM,CN1C(=O)[C@@H](NC(=O)c2nn(Cc3ccccc3C#N)cc2F)COc2cccnc21

row,Structure (SMILES),IC50
1,CN1C(=O)[C@H](NC(=O)c2cc(Oc3ccc(F)cc3F)ccn2)CCc2cccnc21,> 3000 nM

# — ChEMBL document CHEMBL5726598, “Compounds, compositions and methods” (2017)
